Tests used:
[1] = molecular target: Calcitonin-gene-related peptide receptor, CALCRL/RAMP1 (Homo sapiens, UniProt O60894+Q16602); assay: Displacement of [125I]-hCGRP from human CALCRL/RAMP1 expressed in HEK293 cell membranes
[2] = Apparent passive permeability of the compound in presence of […]; format: physicochemical; conditions: not told
[3] = system: human MDR1; assay: Efflux ratio of permeability from basolateral to apical side over apical to basolateral side in pig LLC-PK1 cells expressing human MDR1; format: ADME, cell-based, Sus scrofa
[4] = Clearance in rat at 2 mg/kg; format: ADME, organism-based; set-up: dose 2 mg/kg; conditions: in vivo
[5] = Half life in rat at 2 mg/kg; format: ADME, organism-based; set-up: dose 2 mg/kg; conditions: in vivo
[6] = Oral bioavailability in rat at 10 mg/kg; format: ADME, organism-based; conditions: in vivo

Calcitonin-gene-related peptide receptor, CALCRL/RAMP1, sequence (O60894 whole entry): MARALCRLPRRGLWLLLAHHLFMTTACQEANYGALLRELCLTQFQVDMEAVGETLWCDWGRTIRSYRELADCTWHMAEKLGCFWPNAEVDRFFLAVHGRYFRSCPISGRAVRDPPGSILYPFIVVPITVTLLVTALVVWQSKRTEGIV
Calcitonin-gene-related peptide receptor, CALCRL/RAMP1, sequence (Q16602 whole entry): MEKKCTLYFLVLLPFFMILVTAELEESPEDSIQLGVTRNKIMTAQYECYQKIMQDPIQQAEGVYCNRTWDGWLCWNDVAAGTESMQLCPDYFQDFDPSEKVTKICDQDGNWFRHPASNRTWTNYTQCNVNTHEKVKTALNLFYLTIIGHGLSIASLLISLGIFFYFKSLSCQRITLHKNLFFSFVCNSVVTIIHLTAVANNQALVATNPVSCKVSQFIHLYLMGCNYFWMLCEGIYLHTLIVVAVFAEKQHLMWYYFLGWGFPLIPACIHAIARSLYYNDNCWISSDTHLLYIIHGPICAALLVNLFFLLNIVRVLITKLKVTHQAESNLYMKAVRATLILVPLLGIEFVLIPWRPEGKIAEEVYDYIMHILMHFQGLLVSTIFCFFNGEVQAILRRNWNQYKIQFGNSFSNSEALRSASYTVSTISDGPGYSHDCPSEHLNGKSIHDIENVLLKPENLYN

Structure (SMILES)	Ki [1] [nM]	Papp [2] [×10⁻⁶ cm/s]	efflux ratio [3]	clearance [4] [mL/min/kg]	half-life [5] [h]	bioavailability [6] [%]
C[C@H](c1cc(F)cc(F)c1)N(C/C=C/c1ccc2c(c1)C[C@@]1(C2)C(=O)Nc2ncccc21)C(=O)C(C)(C)C	0.16					
C[C@H](c1ccccc1)N(CC#Cc1ccc2c(c1)C[C@@]1(C2)C(=O)Nc2ncccc21)C(=O)C(C)(C)C	0.82					
C[C@H](c1ccc(Cl)cc1)N(C/C=C/c1cnc2c(c1)C[C@@]1(C2)C(=O)Nc2ncccc21)C(=O)C(C)(C)C	0.31	17	1			
C[C@H](c1ccccc1)N(CCCc1cnc2c(c1)C[C@@]1(C2)C(=O)Nc2ncccc21)C(=O)C(C)(C)C	1.35	39	3.2			
C[C@H](c1cc(F)cc(F)c1)N(CC(=O)Nc1ccc2c(c1)C[C@@]1(C2)C(=O)NC(=O)N1C)C(=O)C(C)(C)C		25	8.8			
CC(C)(C)C(=O)N(CCCc1cnc2c(c1)C[C@@]1(C2)C(=O)Nc2ncccc21)[C@@H]1CCc2ccccc21	0.61	33	2.6			
Cc1noc(C)c1C(=O)N(C/C=C/c1cnc2c(c1)C[C@@]1(C2)C(=O)Nc2ncccc21)[C@H](C)c1cc(F)cc(F)c1	2.39	29	16			
C[C@H](c1ccccc1)N(C/C=C/c1cnc2c(c1)C[C@@]1(C2)C(=O)Nc2ncccc21)C(=O)C(C)(C)C	0.22					
C[C@H](c1ccccc1)N(CC#Cc1cnc2c(c1)C[C@@]1(C2)C(=O)Nc2ncccc21)C(=O)C(C)(C)C	0.13	33	1.3			
Cc1cc(C(=O)N(C/C=C/c2ccc3c(c2)C[C@@]2(C3)C(=O)Nc3ncccc32)[C@H](C)c2cc(F)cc(F)c2)n(C)n1	0.45	17	2			
CC(C)(C)C(=O)N(CC#Cc1cnc2c(c1)C[C@@]1(C2)C(=O)Nc2ncccc21)[C@@H]1CCc2ccccc21	0.05	26	1.1			
CC(C)(C)C(=O)N(C/C=C/c1cnc2c(c1)C[C@@]1(C2)C(=O)Nc2ncccc21)C1CCCCCC1	0.89	20	0.8			
CC(C)(C)C(=O)N(C/C=C/c1cnc2c(c1)C[C@@]1(C2)C(=O)Nc2ncccc21)Cc1cc(F)cc(F)c1	0.93	23	0.9			
CC(C)C(=O)N(C/C=C/c1ccc2c(c1)C[C@@]1(C2)C(=O)Nc2ncccc21)[C@H](C)c1cc(F)cc(F)c1	1.27					
C[C@H](c1cc(F)cc(F)c1)N(Cc1cnc2cc3c(cc2c1)C[C@@]1(C3)C(=O)Nc2ncccc21)C(=O)C(C)(C)C		20	1.3			
C[C@H](c1ccccc1)N(C/C=C/c1ccc2c(c1)C[C@@]1(C2)C(=O)Nc2ncccc21)C(=O)C(C)(C)C	0.35					
C[C@H](c1cc(F)cc(F)c1)N(C/C=C/c1cnc2c(c1)C[C@@]1(C2)C(=O)Nc2ncccc21)C(=O)C1(C(F)(F)F)CC1		21	2			
C[C@H](c1cc(F)cc(F)c1)N(C/C=C/c1cnc2c(c1)C[C@@]1(C2)C(=O)Nc2ncccc21)C(=O)C(C)(C)C	0.04	27	1.4	23	11	51
C[C@H](c1cc(F)cc(F)c1)N(CC(=O)Nc1ccc2c(c1)C[C@@]1(C2)C(=O)Nc2ncccc21)C(=O)C(C)(C)C		26	3.2	11	1	
C[C@H](c1ccccc1)N(CCCc1ccc2c(c1)C[C@@]1(C2)C(=O)Nc2ncccc21)C(=O)C(C)(C)C	7.6					
C[C@H](c1cc(F)cc(F)c1)N(C/C=C/c1cnc2c(c1)C[C@@]1(C2)C(=O)Nc2ncccc21)C(=O)c1nccn1C	0.16	28	19			
C[C@H](c1cc(F)cc(F)c1)N(C/C=C/c1ccc2c(c1)C[C@@]1(C2)C(=O)Nc2ncccc21)C(=O)C1CCOCC1	0.09	32	1.9			
CC(C)(C)C(=O)N(C/C=C/c1cnc2c(c1)C[C@@]1(C2)C(=O)Nc2ncccc21)[C@@H]1CCc2ccccc21	0.08	24	3.1			
CC(C)(C)C(=O)N(CCCc1ccc2c(c1)C[C@@]1(C2)C(=O)Nc2ncccc21)[C@@H]1CCc2ccccc21	2.06					
Cc1ccsc1C(=O)N(C/C=C/c1cnc2c(c1)C[C@@]1(C2)C(=O)Nc2ncccc21)[C@H](C)c1cc(F)cc(F)c1	0.13	17	1.5			
CC(C)(C)C(=O)N(C/C=C/c1ccc2c(c1)C[C@@]1(C2)C(=O)Nc2ncccc21)[C@@H]1CCc2ccccc21	0.2					
Cc1ccc([C@@H](C)N(C/C=C/c2cnc3c(c2)C[C@@]2(C3)C(=O)Nc3ncccc32)C(=O)C(C)(C)C)cc1F		18	1.1			
CC(C)(C)C(=O)N(CC#Cc1ccc2c(c1)C[C@@]1(C2)C(=O)Nc2ncccc21)[C@@H]1CCc2ccccc21	0.2					
C[C@H](c1cc(F)cc(F)c1)N(C/C=C/c1ccc2c(c1)C[C@@]1(C2)C(=O)Nc2ncccc21)C(=O)[C@@H]1CCCN1C	3.38	33	27			
C[C@H](c1cc(F)cc(F)c1)N(CCCc1cnc2c(c1)C[C@@]1(C2)C(=O)Nc2ncccc21)C(=O)C(C)(C)C	0.22	26	3.1			
